Legend:
[1] = target: T1, HCV NS5B RdRp genotype 1b (Hepatitis C virus genotype 1b, UniProt Q9WMX2); experiment: Standard HCV NS5B RdRp enzyme assay; type: biochemical; details: Table 1b; HCV NS5B RdRp genotype 1b; read-out: IC50
T1 construct: The protein was expressed with an 18 amino acid C-terminal truncation to enhance the solubility; made in house; host or cells: E. coli BL21(DE3), pET21a vector
Method in brief: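 C-terminally truncated (18 aa) genotype 1b NS5B from E. coli, 28 nM, with 6 nM polyA template, 180 nM biotinylated oligo-dT12 primer and 3H-UTP (0.29 μM total UTP). Hepes pH 7.5 buffer with 2% DMSO; 60 min at 30° C. EDTA stop, SPA read-out; IC50 from seven concentrations by four-parameter fit.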

HCV replicon cells = experiment: HCV replicon FRET / luciferase assay (96-well plates); type: cell-based; details: Hepatitis C virus, Table 1b; HCV replicon; read-out: EC50
Method in brief: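 Replicon cells + titrated cpds, 37 °C CO2. Alamar blue for cytotoxicity, PBS rinse, then lysis reagent w/ 20 μM FRET peptide (EDANS/DABCYL), 150 mM NaCl; kinetic read ex340/em490, 20 cycles. Alt: Dual-Glo luciferase. EC50 = 50% drop in FRET/luciferase signal after background subtraction.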

T1 sequence (Q9WMX2 2420-2992): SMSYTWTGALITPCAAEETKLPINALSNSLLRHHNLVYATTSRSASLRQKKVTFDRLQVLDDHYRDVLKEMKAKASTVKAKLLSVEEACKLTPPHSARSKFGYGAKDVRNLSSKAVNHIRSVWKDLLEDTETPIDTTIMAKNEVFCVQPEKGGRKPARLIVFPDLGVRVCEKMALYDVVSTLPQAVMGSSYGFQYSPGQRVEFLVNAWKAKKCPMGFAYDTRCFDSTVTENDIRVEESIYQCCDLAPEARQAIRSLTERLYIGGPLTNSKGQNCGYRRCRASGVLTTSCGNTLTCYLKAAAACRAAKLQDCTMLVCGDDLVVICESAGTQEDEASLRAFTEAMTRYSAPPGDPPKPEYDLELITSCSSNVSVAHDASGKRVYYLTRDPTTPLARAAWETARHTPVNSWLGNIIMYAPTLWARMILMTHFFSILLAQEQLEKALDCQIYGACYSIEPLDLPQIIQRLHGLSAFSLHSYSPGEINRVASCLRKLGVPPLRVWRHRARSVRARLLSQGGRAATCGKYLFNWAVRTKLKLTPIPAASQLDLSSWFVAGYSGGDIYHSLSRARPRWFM

Row | Compound | IC50 [1] | EC50 (HCV replicon cells)
1 | CNC(=O)c1c(-c2ccc(F)cc2)oc2ccc(-c3ccc(-c4cccnc4OC)c(C(=O)NCC(C)C)c3)cc12 | < 250 nM | < 250 nM
2 | CNC(=O)c1c(-c2ccc(F)cc2)oc2ccc(-c3ccc(-c4ccccc4OC)c(C(=O)NCC(C)C)c3)cc12 | < 250 nM | < 250 nM
3 | CNC(=O)c1c(-c2ccc(F)cc2)oc2ccc(-c3ccc(-c4cccc(/C=C/C(=O)O)c4)c(C(=O)NCC(C)C)c3)cc12 | < 250 nM | 250 to 1000 nM
4 | CNC(=O)c1c(-c2ccc(F)cc2)oc2ccc(-c3ccc(-c4ccc5cc[nH]c5c4)c(C(=O)NCC(C)C)c3)cc12 | 250 to 1000 nM | < 250 nM
5 | CNC(=O)c1c(-c2ccc(F)cc2)oc2ccc(-c3cc(C(=O)NC4(c5nc(C6CC6)no5)CC4)ccc3C)cc12 | < 250 nM | < 250 nM
6 | CNC(=O)c1c(-c2ccc(F)cc2)oc2ccc(-c3ccc(-c4cccc(OC)c4F)c(C(=O)NCC(C)C)c3)cc12 | > 10000 nM | 250 to 1000 nM
7 | CNC(=O)c1c(-c2ccc(F)cc2)oc2ccc(-c3ccc(-c4cc(F)cc(F)c4)c(C(=O)NCC(C)C)c3)cc12 | 250 to 1000 nM | < 250 nM
8 | C#CCNC(=O)C1(NC(=O)c2ccc(C)c(-c3ccc4oc(-c5ccc(F)cc5)c(C(=O)NC)c4c3)c2)CC1 | < 250 nM | < 250 nM
9 | CNC(=O)c1c(-c2ccc(C)cc2)oc2ccc(-c3cc(C(=O)NC4(c5nc(COC)no5)CC4)ccc3C)cc12 | < 250 nM | < 250 nM
10 | CNC(=O)c1c(-c2ccc(F)cc2)oc2ccc(-c3cc(OCCN(C)C)cc(C(=O)NCC(C)C)c3)cc12 | 250 to 1000 nM | 250 to 1000 nM
11 | CNC(=O)c1c(-c2ccc(F)cc2)oc2ccc(-c3cc(OCCc4cccnc4)cc(C(=O)NCC(C)C)c3)cc12 | > 10000 nM | 1000 to 10000 nM
12 | CNC(=O)c1c(-c2ccc(F)cc2)oc2ccc(-c3cc(C(=O)NC4(c5nnc(N)o5)CC4)ccc3C)cc12 | < 250 nM | < 250 nM
13 | CNC(=O)c1c(-c2ccc(F)cc2)oc2ccc(-c3cc(C(=O)NC4(c5noc(C)n5)CC4)ccc3C)cc12 | < 20 nM | < 250 nM
14 | CNC(=O)c1c(-c2ccc(F)cc2)oc2ccc(-c3ccc(-c4cccnc4C)c(C(=O)NCC(C)C)c3)cc12 | < 250 nM | < 250 nM
15 | CNC(=O)c1c(-c2ccc(F)cc2)oc2ccc(-c3ccc(-c4cncc(N)c4)c(C(=O)NCC(C)C)c3)cc12 | < 250 nM | 250 to 1000 nM
16 | CNC(=O)c1c(-c2ccc(F)cc2)oc2ccc(-c3ccc(-c4ccnc(N)c4)c(C(=O)NCC(C)C)c3)cc12 | < 20 nM | < 250 nM
17 | CNC(=O)c1c(-c2ccc(F)cc2)oc2ccc(-c3cc(C(=O)NC4(c5ccccn5)CC4)c(O)cc3Cl)cc12 | < 250 nM | 250 to 1000 nM
18 | CNC(=O)c1c(-c2ccc(F)cc2)oc2ccc(-c3cc(C(=O)NC4(c5cccnc5)CC4)ccc3C)cc12 | < 20 nM | < 250 nM
19 | CNC(=O)c1c(-c2ccc(F)cc2)oc2ccc(-c3cc(O)cc(C(=O)NCC(C)C)c3)cc12 | < 250 nM | 250 to 1000 nM
20 | CNC(=O)c1c(-c2ccc(F)cc2)oc2ccc(-c3cc(OCCCCN)cc(C(=O)NCC(C)C)c3)cc12 | < 250 nM | 1000 to 10000 nM

Row | Compound | IC50 [1] | EC50 (HCV replicon cells)
21 | CNC(=O)c1c(-c2ccc(F)cc2)oc2ccc(-c3cc(OCCC4CCCNC4)cc(C(=O)NCC(C)C)c3)cc12 (stereo not shown) | < 250 nM | < 250 nM
22 | CNC(=O)c1c(-c2ccc(F)cc2)oc2ccc(-c3cc(OCCn4ccnc4)cc(C(=O)NCC(C)C)c3)cc12 | 1000 to 10000 nM | 1000 to 10000 nM
23 | CNC(=O)c1c(-c2ccc(F)cc2)oc2ccc(-c3cc(OCCc4ccncc4)cc(C(=O)NCC(C)C)c3)cc12 | < 250 nM | > 500 nM
24 | C#CCOc1cc(C(=O)NCC(C)C)cc(-c2ccc3oc(-c4ccc(F)cc4)c(C(=O)NC)c3c2)c1 | 1000 to 10000 nM | 1000 to 10000 nM
25 | CNC(=O)c1c(-c2ccc(F)cc2)oc2ccc(-c3cc(OCC4CC4)cc(C(=O)NCC(C)C)c3)cc12 | > 10000 nM | 250 to 1000 nM
26 | CNC(=O)c1c(-c2ccc(F)cc2)oc2ccc(-c3cc(OCc4cccnc4)cc(C(=O)NCC(C)C)c3)cc12 | 1000 to 10000 nM | 1000 to 10000 nM
27 | CNC(=O)c1c(-c2ccc(F)cc2)oc2ccc(-c3cc(OCc4ccoc4)cc(C(=O)NCC(C)C)c3)cc12 | 1000 to 10000 nM | 1000 to 10000 nM
28 | CNC(=O)c1c(-c2ccc(F)cc2)oc2ccc(-c3cc(OCCC4CCNCC4)cc(C(=O)NCC(C)C)c3)cc12 | < 250 nM | 1000 to 10000 nM
29 | CCCOc1cc(C(=O)NCC(C)C)cc(-c2ccc3oc(-c4ccc(F)cc4)c(C(=O)NC)c3c2)c1 | > 10000 nM | 1000 to 10000 nM
30 | CCOc1cc(C(=O)NCC(C)C)cc(-c2ccc3oc(-c4ccc(F)cc4)c(C(=O)NC)c3c2)c1 | > 500 nM | 1000 to 10000 nM
31 | CNC(=O)c1c(-c2ccc(F)cc2)oc2ccc(-c3cc(OCCOC)cc(C(=O)NCC(C)C)c3)cc12 | > 500 nM | 1000 to 10000 nM
32 | CNC(=O)c1c(-c2ccc(F)cc2)oc2ccc(-c3cc(OCCn4ccnc4C)cc(C(=O)NCC(C)C)c3)cc12 | 1000 to 10000 nM | 1000 to 10000 nM
33 | CNC(=O)c1c(-c2ccc(F)cc2)oc2ccc(-c3cc(OC[C@@H]4CCCN4)cc(C(=O)NCC(C)C)c3)cc12 | 1000 to 10000 nM | 1000 to 10000 nM
34 | CNC(=O)c1c(-c2ccc(F)cc2)oc2ccc(-c3cc(OCc4cc(C)on4)cc(C(=O)NCC(C)C)c3)cc12 | > 1390 nM | 1000 to 10000 nM
35 | CNC(=O)c1c(-c2ccc(F)cc2)oc2ccc(-c3cc(OCc4ccco4)cc(C(=O)NCC(C)C)c3)cc12 | 1000 to 10000 nM | 1000 to 10000 nM
36 | CNC(=O)c1c(-c2ccc(F)cc2)oc2ccc(-c3cc(OCC4CCC4)cc(C(=O)NCC(C)C)c3)cc12 | > 10000 nM | 1000 to 10000 nM
37 | CNC(=O)c1c(-c2ccc(F)cc2)oc2ccc(-c3cc(OCc4nnc(C)o4)cc(C(=O)NCC(C)C)c3)cc12 | < 250 nM | 1000 to 10000 nM
38 | CNC(=O)c1c(-c2ccc(F)cc2)oc2ccc(-c3cc(OCCn4cncn4)cc(C(=O)NCC(C)C)c3)cc12 | 250 to 1000 nM | 1000 to 10000 nM
39 | CNC(=O)c1c(-c2ccc(F)cc2)oc2ccc(-c3cc(OCC#N)cc(C(=O)NCC(C)C)c3)cc12 | < 250 nM | < 250 nM
40 | CNC(=O)c1c(-c2ccc(F)cc2)oc2ccc(-c3cccc(C(=O)NC4(c5ccccn5)CC4)c3F)cc12 | < 250 nM | < 250 nM

Row | Compound | IC50 [1] | EC50 (HCV replicon cells)
41 | CNC(=O)c1c(-c2ccc(F)cc2)oc2ccc(-c3cc(C(=O)NC4(c5ccccn5)CC4)ccc3C(F)(F)F)cc12 | < 250 nM | < 250 nM
42 | CNC(=O)c1c(-c2ccc(F)cc2)oc2ccc(-c3cc(C(=O)NC4(c5ccccc5)CC4)ccc3OCCN(C)C)cc12 | < 250 nM | < 250 nM
43 | CNC(=O)c1c(-c2ccc(F)cc2)oc2ccc(-c3cc(C(=O)NC4(c5ccccc5)CC4)ccc3OCCO)cc12 | < 250 nM | < 250 nM
44 | CNC(=O)c1c(-c2ccc(F)cc2)oc2ccc(-c3cc(C(=O)NC4(c5ccccc5)CC4)ccc3OCC(N)=O)cc12 | < 250 nM | < 250 nM
45 | CNC(=O)c1c(-c2ccc(F)cc2)oc2ccc(-c3cc(C(=O)NC4(c5ccccc5)CC4)ccc3OCCN)cc12 | < 250 nM | < 250 nM
46 | CNC(=O)c1c(-c2ccc(F)cc2)oc2ccc(-c3cc(C(=O)NC4(c5ccccn5)CC4)ccc3OC)cc12 | < 250 nM | < 250 nM
47 | CNC(=O)c1c(-c2ccc(F)cc2)oc2ccc(-c3cc(F)cc(C(=O)NC4(c5ccccn5)CC4)c3)cc12 | < 250 nM | < 250 nM
48 | CNC(=O)c1c(-c2ccc(F)cc2)oc2ccc(-c3cc(C(=O)NC4(c5ccccn5)CC4)c(OC)cc3OC)cc12 | < 250 nM | < 250 nM
49 | CNC(=O)c1c(-c2ccc(F)cc2)oc2ccc(-c3ccc(Cl)c(C(=O)NC4(c5ccccn5)CC4)c3)cc12 | 250 to 1000 nM | > 10000 nM
50 | CNC(=O)c1c(-c2ccc(F)cc2)oc2ccc(-c3cc(C(=O)NC4(c5ccccn5)CC4)ccc3OCC(N)=O)cc12 | < 250 nM | < 250 nM
51 | CNC(=O)c1c(-c2ccc(F)cc2)oc2ccc(-c3cc(C(=O)NC4(c5ccccn5)CC4)ccc3OCCN(C)C)cc12 | < 250 nM | < 250 nM
52 | CNC(=O)c1c(-c2ccc(F)cc2)oc2ccc(-c3cc(C(=O)NC4(c5nnc(-c6cccnc6)[nH]5)CC4)ccc3C)cc12 | < 250 nM | < 250 nM
53 | CNC(=O)c1c(-c2ccc(F)cc2)oc2ccc(-c3cc(C(=O)NC4(c5nnc(-c6ccncc6)[nH]5)CC4)ccc3C)cc12 | < 250 nM | < 250 nM
54 | CNC(=O)c1c(-c2ccc(F)cc2)oc2ccc(-c3cc(C(=O)NC4(c5nnc(-c6ccccc6Cl)[nH]5)CC4)ccc3C)cc12 | < 250 nM | < 250 nM
55 | CNC(=O)c1c(-c2ccc(F)cc2)oc2ccc(-c3cc(C(=O)NC4(c5nnc(-c6cccc(OC)c6)[nH]5)CC4)ccc3C)cc12 | < 250 nM | < 250 nM
56 | CNC(=O)c1c(-c2ccc(F)cc2)oc2ccc(-c3cc(C(=O)NC4(c5nnc(-c6cccc(Cl)c6)[nH]5)CC4)ccc3C)cc12 | < 250 nM | < 250 nM
57 | CNC(=O)c1c(-c2ccc(F)cc2)oc2ccc(-c3cc(C(=O)NC4(c5nnc(-c6ccc(Cl)cc6)[nH]5)CC4)ccc3C)cc12 | 250 to 1000 nM | < 250 nM
58 | CNC(=O)c1c(-c2ccc(F)cc2)oc2ccc(-c3cc(C(=O)NC4(c5nnc(C(N)=O)[nH]5)CC4)ccc3C)cc12 | < 250 nM | 250 to 1000 nM
59 | CNC(=O)c1c(-c2ccc(F)cc2)oc2ccc(-c3cc(C(=O)NC4(c5nnc(-c6ccc(OC)cc6)[nH]5)CC4)ccc3C)cc12 | < 250 nM | < 250 nM

— patent US8309558B2, “Compounds for the treatment of hepatitis C” (Bristol-Myers Squibb Company, priority 2008, dated 2012)
